27 compounds from US9156829B2, “Cycloalkyl and heterocycloalkyl compounds as orexin receptor antagonists” (Takeda Pharmaceutical Company Limited, priority 2014, dated 2015) can be followed below.

pIC50: −log10 of the molar value.

Experiment [1] has as its target human orexin receptor 1 (Homo sapiens (Human), UniProt O43613). Description: Orexin antagonist activity, intracellular calcium FLIPR assay, RBL-2H3 cells expressing human orexin receptor 1. The format is cell-based. The settings on record: RBL-2H3 cells stably expressing human orexin receptor 1; orexin-A at approx. 80% maximal response; compound added 15 minutes before; read-out: Human Orexin1R IC50.

Experiment [2] deals with human orexin receptor 2 (Homo sapiens (Human), UniProt O43614). The experiment is described as follows: Orexin antagonist activity, intracellular calcium FLIPR assay, RBL-2H3 cells expressing human orexin receptor 2. It is filed as cell-based. The note with it: RBL-2H3 cells stably expressing human orexin receptor 2; orexin-A at approx. 80% maximal response; compound added 15 minutes before; read-out: Human Orexin2R IC50. For orientation: A change in cytosolic calcium serves as a functional read-out for many receptors and channels.
Sequence of human orexin receptor 2 (O43614 whole entry): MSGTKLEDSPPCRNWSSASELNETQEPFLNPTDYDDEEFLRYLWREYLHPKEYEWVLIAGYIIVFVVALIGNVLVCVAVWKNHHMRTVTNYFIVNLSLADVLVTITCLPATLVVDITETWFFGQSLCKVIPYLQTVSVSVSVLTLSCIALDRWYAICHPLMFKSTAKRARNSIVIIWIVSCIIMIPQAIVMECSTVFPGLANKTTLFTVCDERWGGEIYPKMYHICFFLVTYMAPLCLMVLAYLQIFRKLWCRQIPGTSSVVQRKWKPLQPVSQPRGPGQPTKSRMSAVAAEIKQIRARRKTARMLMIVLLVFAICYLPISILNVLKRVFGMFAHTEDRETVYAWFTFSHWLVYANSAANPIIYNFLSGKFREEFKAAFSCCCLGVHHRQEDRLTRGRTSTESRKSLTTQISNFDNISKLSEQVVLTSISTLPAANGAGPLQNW

Sequence of human orexin receptor 1 (O43613 whole entry): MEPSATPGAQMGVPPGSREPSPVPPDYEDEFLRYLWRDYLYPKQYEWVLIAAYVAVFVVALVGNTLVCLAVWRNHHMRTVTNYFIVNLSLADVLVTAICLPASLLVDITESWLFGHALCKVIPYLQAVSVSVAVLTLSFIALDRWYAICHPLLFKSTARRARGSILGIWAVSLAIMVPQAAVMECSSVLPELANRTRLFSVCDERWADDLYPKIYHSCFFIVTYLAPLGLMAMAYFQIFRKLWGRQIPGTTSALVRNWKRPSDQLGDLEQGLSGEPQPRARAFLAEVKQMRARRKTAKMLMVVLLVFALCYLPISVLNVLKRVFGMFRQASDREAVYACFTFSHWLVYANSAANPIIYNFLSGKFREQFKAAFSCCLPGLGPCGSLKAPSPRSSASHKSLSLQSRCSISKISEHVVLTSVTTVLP

The term pIC50 denotes the IC50 on a negative log10 scale, so that one unit is a factor of ten. As for `O=C(N[C@H]1CCC[C@@H]1Nc1ncc(C(F)(F)F)cc1Cl)c1ncccc1-n1nccn1` [Example 122, N-[(1S,2S)-2-{[3-Chloro-5-(trifluoromethyl)pyridin-2-yl]amino}cyclopentyl]-3-(2H-1,2,3-triazol-2-yl)pyridine-2-carboxamide], the pIC50 in experiment [1] is 7.49; in experiment [2], below 5.00.

As for `O=C(N[C@H]1CCC[C@@H]1Nc1ncc(C(F)(F)F)cc1F)c1ncccc1-n1nccn1` [Example 123, N-[(1S,2S)-2-{[3-Fluoro-5-(trifluoromethyl)pyridin-2-yl]amino}cyclopentyl]-3-(2H-1,2,3-triazol-2-yl)pyridine-2-carboxamide], the pIC50 in experiment [1] is 7.74; in experiment [2], below 5.00.

On to `Cc1cc(C(F)(F)F)cnc1N[C@H]1CCC[C@@H]1NC(=O)c1ncccc1-n1nccn1` [Example 124, N-[(1S,2S)-2-{[3-Methyl-5-(trifluoromethyl)pyridin-2-yl]amino}cyclopentyl]-3-(2H-1,2,3-triazol-2-yl)pyridine-2-carboxamide], for which the pIC50 in experiment [1] is 7.68; in experiment [2] it was below 5.00.

As for `CCc1nc(C(F)(F)F)cnc1N[C@H]1CCC[C@@H]1NC(=O)c1ncccc1-n1nccn1` [Example 125, N-[(1S,2S)-2-{[3-Ethyl-5-(trifluoromethyl)pyrazin-2-yl]amino}cyclopentyl]-3-(2H-1,2,3-triazol-2-yl)pyridine-2-carboxamide], the pIC50 in experiment [1] was 7.85; in experiment [2], below 5.00.

Regarding `O=C(NC1CC(F)(F)CC1Nc1cnc(C(F)(F)F)cn1)c1ccccc1-n1nccn1` (stereo not drawn) [Example 126, N-(4,4-Difluoro-2-{[5-(trifluoromethyl)pyrazin-2-yl]amino}cyclopentyl)-2-(2H-1,2,3-triazol-2-yl)benzamide], the pIC50 in experiment [1] was 6.92; in experiment [2], below 5.00.

With `O=C(N[C@H]1CC(F)(F)C[C@@H]1Nc1ccc(OC(F)(F)F)cn1)c1ccccc1-n1nccn1` [Example 131, N-[(1S,2S)-4,4-Difluoro-2-{[5-(trifluoromethoxy)pyridin-2-yl]amino}cyclopentyl]-2-(2H-1,2,3-triazol-2-yl)benzamide], the values for the pIC50 in experiment [1] and in experiment [2] were 7.41 and below 5.00, respectively.

For the compound `O=C(N[C@H]1CC(F)(F)C[C@@H]1Nc1ncc(C(F)(F)F)cc1F)c1ccccc1-n1nccn1` [Example 132, N-[(1S,2S)-4,4-Difluoro-2-{[3-fluoro-5-(trifluoromethyl)pyridin-2-yl]amino}cyclopentyl]-2-(2H-1,2,3-triazol-2-yl)benzamide], the pIC50 in experiment [1] was 7.92; in experiment [2], below 5.00.

As to `CCOc1cnc(-c2ccccc2C(=O)N[C@H]2CCC[C@@H]2Nc2cnc(C(F)(F)F)cn2)nc1` [Example 135, 2-(5-Ethoxypyrimidin-2-yl)-N-[(1S,2S)-2-{[5-(trifluoromethyl)pyrazin-2-yl]amino}cyclopentyl]benzamide], the pIC50 in experiment [1] is 7.03; in experiment [2], below 5.00.

With `COc1cccc(F)c1C(=O)N[C@H]1CCC[C@@H]1Nc1cnc(C(F)(F)F)cn1` [Example 136, 2-Fluoro-6-methoxy-N-[(1S,2S)-2-{[5-(trifluoromethyl)pyrazin-2-yl]amino}cyclopentyl]benzamide], the pIC50 is 6.08 in experiment [1] and below 5.00 in experiment [2].

As for `Cc1cc(C(F)(F)F)cnc1N[C@H]1CCC[C@@H]1NC(=O)c1ncccc1-c1ncccn1` [Example 137, N-[(1S,2S)-2-{[3-Methyl-5-(trifluoromethyl)pyridin-2-yl]amino}cyclopentyl]-3-(pyrimidin-2-yl)pyridine-2-carboxamide], the pIC50 in experiment [1] is 7.47; in experiment [2] it was below 5.00.

Regarding `O=C(N[C@H]1CCC[C@@H]1Nc1ncc(C(F)(F)F)cc1F)c1ccccc1-c1ncccn1` [Example 138, N-[(1S,2S)-2-{[3-Fluoro-5-(trifluoromethyl)pyridin-2-yl]amino}cyclopentyl]-2-(pyrimidin-2-yl)benzamide], the values for the pIC50 in experiment [1] and in experiment [2] were 7.52 and below 5.00, respectively.

For the compound `O=C(N[C@H]1CCC[C@@H]1Nc1ncc(C(F)(F)F)cc1F)c1cc(F)ccc1-c1ncccn1` [Example 139, 5-Fluoro-N-[(1S,2S)-2-{[3-fluoro-5-(trifluoromethyl)pyridin-2-yl]amino}cyclopentyl]-2-(pyrimidin-2-yl)benzamide], the figures for the pIC50 in experiment [1] and in experiment [2] were 7.49 and below 5.00, respectively.

`Cc1noc(-c2ccccc2C(=O)N[C@H]2CCC[C@@H]2Nc2ncc(C(F)(F)F)cc2F)n1` [Example 140, N-[(1S,2S)-2-{[3-Fluoro-5-(trifluoromethyl)pyridin-2-yl]amino}cyclopentyl]-2-(3-methyl-1,2,4-oxadiazol-5-yl)benzamide]: the pIC50 in experiment [1] was 7.46; in experiment [2] it was below 5.00.

Take `Cc1noc(-c2ccccc2C(=O)N[C@H]2CCC[C@@H]2Nc2ncc(C(F)(F)F)nc2C)n1` [Example 141, 2-(3-Methyl-1,2,4-oxadiazol-5-yl)-N-[(1S,2S)-2-{[3-methyl-5-(trifluoromethyl)pyrazin-2-yl]amino}cyclopentyl]benzamide]: the pIC50 in experiment [1] was 7.21; in experiment [2], below 5.00.

Regarding `O=C(N[C@H]1CCC[C@@H]1Nc1ncc(C(F)(F)F)nc1C1CC1)c1ncccc1-n1nccn1` [Example 142, N-[(1S,2S)-2-{[3-Cyclopropyl-5-(trifluoromethyl)pyrazin-2-yl]amino}cyclopentyl]-3-(2H-1,2,3-triazol-2-yl)pyridine-2-carboxamide], the pIC50 in experiment [1] was 7.92; in experiment [2], 5.05.

`O=C(N[C@H]1CCC[C@@H]1Nc1ncc(C(F)(F)F)nc1C1CC1)c1ncccc1-c1ncccn1` [Example 143, N-[(1S,2S)-2-{[3-Cyclopropyl-5-(trifluoromethyl)pyrazin-2-yl]amino}cyclopentyl]-3-(pyrimidin-2-yl)pyridine-2-carboxamide]: the results for the pIC50 in experiment [1] and in experiment [2] were 7.31 and below 5.00, respectively.

For `C[C@]1(Nc2cnc(C(F)(F)F)cn2)CCC[C@@H]1NC(=O)c1ncccc1-c1ncccn1` [Example 144, N-[(1S,2S)-2-Methyl-2-{[5-(trifluoromethyl)pyrazin-2-yl]amino}cyclopentyl]-3-(pyrimidin-2-yl)pyridine-2-carboxamide], the pIC50 in experiment [1] is 7.89; in experiment [2], below 5.00.

`Cc1noc(-c2ccccc2C(=O)N[C@H]2CCC[C@]2(C)Nc2cnc(C(F)(F)F)cn2)n1` [Example 145, 2-(3-Methyl-1,2,4-oxadiazol-5-yl)-N-[(1S,2S)-2-methyl-2-{[5-(trifluoromethyl)pyrazin-2-yl]amino}cyclopentyl]benzamide]: the pIC50 in experiment [1] was 7.96; in experiment [2], below 5.00.

`CC1(Nc2ncc(C(F)(F)F)cc2F)CCCC1NC(=O)c1ncccc1-c1ncccn1` (stereo not drawn) [Example 146, N-(2-{[3-Fluoro-5-(trifluoromethyl)pyridin-2-yl]amino}-2-methylcyclopentyl)-3-(pyrimidin-2-yl)pyridine-2-carboxamide]: the figures for the pIC50 in experiment [1] and in experiment [2] were 8.15 and below 5.00, respectively.

As for `O=C(N[C@H]1CCC[C@@H]1Nc1ncc(C(F)(F)F)cc1F)c1ncccc1-c1ncccn1` [Example 147, N-[(1S,2S)-2-{[3-Fluoro-5-(trifluoromethyl)pyridin-2-yl]amino}cyclopentyl]-3-(pyrimidin-2-yl)pyridine-2-carboxamide], the pIC50 was 7.62 in experiment [1] and below 5.00 in experiment [2].

`O=C(N[C@H]1CCC[C@@H]1Nc1ncc(C(F)(F)F)cc1Cl)c1ncccc1-c1ncccn1` [Example 148, N-[(1S,2S)-2-{[3-Chloro-5-(trifluoromethyl)pyridin-2-yl]amino}cyclopentyl]-3-(pyrimidin-2-yl)pyridine-2-carboxamide]: the pIC50 is 7.72 in experiment [1] and below 5.00 in experiment [2].

As to `CCc1nc(C(F)(F)F)cnc1N[C@H]1CCC[C@@H]1NC(=O)c1ccccc1-c1nc(C)no1` [Example 149, N-[(1S,2S)-2-{[3-Ethyl-5-(trifluoromethyl)pyrazin-2-yl]amino}cyclopentyl]-2-(3-methyl-1,2,4-oxadiazol-5-yl)benzamide], the pIC50 in experiment [1] is 7.60; in experiment [2] it was below 5.00.

Take `CCc1nc(C(F)(F)F)cnc1N[C@H]1CCC[C@@H]1NC(=O)c1ncccc1-c1ncccn1` [Example 150, N-[(1S,2S)-2-{[3-Ethyl-5-(trifluoromethyl)pyrazin-2-yl]amino}cyclopentyl]-3-(pyrimidin-2-yl)pyridine-2-carboxamide]: the pIC50 in experiment [1] was 7.37; in experiment [2], below 5.00.

As to `CCc1nc(C(F)(F)F)cnc1N[C@H]1CCC[C@@H]1NC(=O)c1ccccc1-c1ncccn1` [Example 151, N-[(1S,2S)-2-{[3-Ethyl-5-(trifluoromethyl)pyrazin-2-yl]amino}cyclopentyl]-2-(pyrimidin-2-yl)benzamide], the values for the pIC50 in experiment [1] and in experiment [2] were 7.54 and below 5.00, respectively.

As for `CC1(Nc2ncc(C(F)(F)F)cn2)CCCC1NC(=O)c1ncccc1-c1ncccn1` (stereo not drawn) [Example 153, N-(2-Methyl-2-{[5-(trifluoromethyl)pyrimidin-2-yl]amino}cyclopentyl)-3-(pyrimidin-2-yl)pyridine-2-carboxamide], the pIC50 was 7.18 in experiment [1] and below 5.00 in experiment [2].

For the compound `CC1(Nc2ncc(C(F)(F)F)cn2)CCCC1NC(=O)c1ncccc1-n1nccn1` (stereo not drawn) [Example 154, N-(2-Methyl-2-{[5-(trifluoromethyl)pyrimidin-2-yl]amino}cyclopentyl)-3-(2H-1,2,3-triazol-2-yl)pyridine-2-carboxamide], the values for the pIC50 in experiment [1] and in experiment [2] were 7.38 and below 5.00, respectively.

With `CC1(Nc2ccc(C(F)(F)F)cn2)CCCC1NC(=O)c1ncccc1-n1nccn1` (stereo not drawn) [Example 155, N-(2-Methyl-2-{[5-(trifluoromethyl)pyridin-2-yl]amino}cyclopentyl)-3-(2H-1,2,3-triazol-2-yl)pyridine-2-carboxamide], the results for the pIC50 in experiment [1] and in experiment [2] were 8.10 and below 5.00, respectively.
